Test results published in patent US20230024438A1, “INHIBITORS OF HIF-2ALPHA” (ARCUS BIOSCIENCES, INC., priority 2019, published 2023).
Where two headings read alike, the source gives them in different places.

Key:
HIF-2α = molecular target: T1, HIF-2α (Homo sapiens, UniProt Q99814); assay: HIF-2α Luciferase Reporter Assay; format: cell-based
T1 construct: endogenous in cells; host or cells: 786-O cells (ATCC CRL-1932) stably carrying the Cignal Lenti HIF Luc Reporter
Experimental: Stable cell lines were generated by transducing 786-O cells (ATCC, CRL-1932) with Cignal Lenti HIF Luc Reporter lentivirus (CLS-007L, Qiagen) according to the manufacturer's guidelines. In brief, 0.3×10^6 786-0 cells were transduced with lentivirus at a Multiplicity of Infection (MOI) of 25 for 24 hours. After transduction, cells were replenished with fresh RPMI 1640 Medium (Cat. No. 11875085, Thermo Fisher,) supplemented with 10% FBS (Cat. No. A3160502, Gibco), 2 mM GlutaMax (Cat. No. 35050-061, Invitrogen) and 100 units of penicillin and 100 μg of streptomycin/mL (Cat. No 15070063, Thermo Fisher) for another 24 hours. Antibiotic selection was performed in cell media containing 4 μg/mL of Puromycin. After 7 days of antibiotic selection, stable pools of surviving cells were expanded and used in a luciferase reporter assay.
On day one, 20 uL of HIF-Luc-786-0 cells in OptiMem (Cat. No. 31985088, Thermo Fisher) were seeded into each well of a 384 well white opaque plate (Corning 3570) and incubated at 37° C. and 5% CO2. Twenty microliters of 2× test compounds in OptiMem were added to cells after 4 hours of incubation. Final assay conditions comprised 20,000 cells per well in 1% DMSO with test compound concentrations ranging from 50 uM to 0 uM. After 20 hours incubation at 37° C. and 5% CO2, luciferase activity was determined using ONE-Glo Luciferase Assay Reagent (E6110, Promega) following the manufacture's recommended procedure. Briefly, 40 uL of ONE-Glo luciferase reagents were added to each well and luciferase signals were measured using an Envision 2102 Multilabel Reader. Percentage maximum activity in each test well was calculated based on DMSO (maximum activity) and no cell control wells (baseline activity). The IC50 values of the test compounds were determined from compound dose response curves fitted using a standard four parameter fit equation.

[1] = molecular target: T2, Histidine tagged HIF-2α protein containing PAS-B domain (240-350) (Homo sapiens, UniProt Q99814); assay: HIF-2α Scintillation Proximity Assay (SPA); format: binding
T2 construct: Histidine tagged HIF-2α protein containing PAS-B domain (240-350) was prepared and purified in house; made in house
Experimental: Tritium labeled compound N-(3-chlorophenyl)-4-nitro-2,1,3-benzoxadiazol-5-amine was obtained from American Radiolabeled Chemicals Inc. and copper chelate PVT SPA beads were from PerkinElmer (Cat #RPNQ0095). Histidine tagged HIF-2α protein containing PAS-B domain (240-350) was prepared and purified in house.
Compounds solubilized in DMSO were dispensed into a white 384-well polystyrene non-binding flat clear bottom plate (Greiner Bio-One, Cat #781903) using an HP D300 dispenser. Ten microliters of HIS-tagged HIF-2α protein in buffer (25 mM Tris-HCl, pH 7.4, 150 mM NaCl, 0.15% BSA and 0.001% Tween 20) was added to the compound wells and allowed to incubate for 1 hour at room temperature. Ten microliters of SPA bead mix were added to the wells and incubated for an additional 45 minutes, followed by 10 ul of ^3H-tracer solution. Final assay conditions comprised 50 nM HIF-2α protein, 25 nM radiolabeled tracer and 3 ug beads per well with compounds in 2% DMSO. The plate was read using a MicroBeta Microplate Counter (PerkinElmer) for luminescence detection. The IC50 values of the test compounds were determined from compound dose response curves fitted using a standard four parameter fit equation and are reported in Table 1.

[2] = HIF-Luc-786-0 cells, 20 hours incubation, luciferase activity, read-out: HIF-2α Luciferase Assay
[3] = 50 nM HIF-2α protein, 25 nM radiolabeled tracer, read-out: HIF-2α Scintillation Proximity Assay

T2 sequence (Q99814 240-350): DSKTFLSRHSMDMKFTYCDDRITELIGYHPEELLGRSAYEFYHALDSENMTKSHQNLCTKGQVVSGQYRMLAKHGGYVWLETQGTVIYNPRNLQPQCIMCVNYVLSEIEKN
T1 sequence (Q99814 whole entry): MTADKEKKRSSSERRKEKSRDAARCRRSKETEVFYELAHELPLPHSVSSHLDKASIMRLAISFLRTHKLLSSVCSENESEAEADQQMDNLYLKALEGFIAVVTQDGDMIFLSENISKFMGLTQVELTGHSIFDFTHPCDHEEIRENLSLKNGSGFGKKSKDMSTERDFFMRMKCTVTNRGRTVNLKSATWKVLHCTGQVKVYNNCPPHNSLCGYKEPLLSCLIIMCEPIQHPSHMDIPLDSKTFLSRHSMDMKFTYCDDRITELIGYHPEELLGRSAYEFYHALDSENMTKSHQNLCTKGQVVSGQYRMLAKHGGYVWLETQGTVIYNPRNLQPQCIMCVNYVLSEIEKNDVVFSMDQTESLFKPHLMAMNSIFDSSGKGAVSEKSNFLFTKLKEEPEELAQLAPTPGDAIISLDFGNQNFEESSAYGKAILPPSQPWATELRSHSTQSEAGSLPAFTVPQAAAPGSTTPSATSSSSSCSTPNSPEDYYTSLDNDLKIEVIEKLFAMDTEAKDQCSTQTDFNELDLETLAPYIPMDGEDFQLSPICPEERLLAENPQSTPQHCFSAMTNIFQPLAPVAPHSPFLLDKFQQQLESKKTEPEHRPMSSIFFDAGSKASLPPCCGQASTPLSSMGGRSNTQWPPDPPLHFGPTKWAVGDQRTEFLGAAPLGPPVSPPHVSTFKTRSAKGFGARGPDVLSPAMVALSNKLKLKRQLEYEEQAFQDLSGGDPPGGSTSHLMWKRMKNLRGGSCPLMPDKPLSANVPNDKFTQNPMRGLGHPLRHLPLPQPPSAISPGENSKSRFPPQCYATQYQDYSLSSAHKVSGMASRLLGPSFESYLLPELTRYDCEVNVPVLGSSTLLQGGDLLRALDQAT

Row | Compound | IC50 (HIF-2α; [2]) [µM] | IC50 [1, 3] [µM] | IC50 (HIF-2α) [µM] | IC50 [1] [µM]
1 | O=S(=O)(c1ccc(NCc2ccc(F)cc2Cl)c2cn[nH]c12)C(F)(F)F [Example 54, N-[(2-chloro-4-fluorophenyl)methyl]-7-(trifluoromethylsulfonyl)-1H-indazol-4-amine] | > 10 | > 10 | – | –
2 | N#Cc1cc(F)cc(Oc2ccc(S(=O)(=O)C(F)(F)F)c3[nH]ncc23)c1 [Example 15, 3-Fluoro-5-[(7-trifluoromethanesulfonyl-1H-indazol-4-yl)oxy]benzonitrile] | – | – | < 1 | < 1
3 | O=S(=O)(c1ccc(Oc2ccc(F)cc2)c2cn[nH]c12)C(F)(F)F [Example 18, 4-(p-Fluorophenoxy)-7-(trifluoromethylsulfonyl)-1H-indazole] | 1 to 10 | > 10 | – | –
4 | O=S(=O)(c1ccc(Oc2cccc(C(F)(F)F)c2)c2cn[nH]c12)C(F)(F)F [Example 32, 4-[3-(Trifluoromethyl)phenoxy]-7-(trifluoromethylsulfonyl)-1H-indazole] | > 10 | > 10 | – | –
5 | CS(=O)(=O)c1ccc(Oc2cc(F)cc(C#N)c2)c2c(C#N)n[nH]c12 [Example 10, 4-(3-Cyano-5-fluorophenoxy)-7-methanesulfonyl-1H-indazole-3-carbonitrile] | 1 to 10 | > 10 | – | –

More lines, main results first:

Row | IC50 (HIF-2α; [2]) [µM] | IC50 [1, 3] [µM] | Compound | IC50 (HIF-2α) [µM] | IC50 [1] [µM]
6 | > 10 | < 1 | N#Cc1cc(F)cc(Oc2ccc(S(=O)(=O)C(F)(F)F)c3[nH]nc(Cl)c23)c1 [Example 61, 3-[(3-Chloro-7-trifluoromethanesulfonyl-1H-indazol-4-yl)oxy]-5-fluorobenzonitrile] | – | –
7 | 1 to 10 | 1 to 10 | Cc1n[nH]c2c(S(=O)(=O)C(F)(F)F)ccc(Oc3cc(F)cc(C#N)c3)c12 [Example 58, 3-Fluoro-5-[(3-methyl-7-trifluoromethanesulfonyl-1H-indazol-4-yl)oxy]benzonitrile] | – | –
8 | 1 to 10 | 1 to 10 | N#Cc1cc(F)cc(Oc2ccc(S(=O)(=O)C(F)(F)F)c3cn[nH]c23)c1 [Example 70, 3-Fluoro-5-[4-(trifluoromethylsulfonyl)-1H-indazol-7-yloxy]benzonitrile] | – | –
